One experiment has as its system H460 NSCLC cells. In words: Cell cycle profiles by FACS, MZ and vinorelbine. It is filed as cell-based, human. The following applies: sub-therapeutic low dose. How it is done:
FIG. 10. MZ Enhances activity of anti-mictotic drugs in H460 NSCLC cells. H460 cells were treated with low dose of MZ or Vinorelbine. Cell cycle profiles indicating G1/S G2-Mphases were analyzed by FACS.
The doses of MZ and vinorelbine were chosen to be “sub-therapeutic”. […] Thus, in H460 NSCLC cells mebendazole enhances the activity of anti-mitotic drugs.

Experiment [1] deals with A549 metastatic lung colonies. Description: Lung metastases in vivo after tail vein injection. To be noted: paclitaxel alone, other experiments. Further details: species or system female nude mice. How it is done:
To establish lung metastases, female nude mice were injected intravenously via tail vein with 10^6 A549 tumor cells suspended in […] of sterile PBS. Six days later, mice were divided into two groups of 5 mice each and treated. Group 1 received no treatment and group 2 received the experimental MZ drug orally at 1 mg of drug (100 μl) twice a week for 3 weeks. After 3 weeks, animals were euthanized by CO2 inhalation. Lungs from each of the mice from the two groups were injected intra-tracheally with India ink and fixed in Feketes solution. The therapeutic effect of MZ treatment was determined by counting the number of metastatic tumors in each lung under a dissecting microscope without knowledge of the treatment groups. The experiments were performed three times and data analyzed and interpreted as statistically significant if the p value was <0.05 by the Mann-Whitney rank-sum test.
Next, the inventors asked whether treatment with MZ would inhibit the growth of human metastatic lung cancer cells in vivo. About 300 metastatic colonies appeared on untreated mice 21 days after A549 cell injection into the tail vein (FIG. 6). This technique was reproducible as the totals blindly counted by two investigators differed by less than 10%. This experiment was performed three times with similar results. The oral administration of […] MZ reduced mean colony count to 80% of the mean value for controls (P<0.0001).

Drawing on patent publication US7423015B1, “Antihelminthic drugs as a treatment for hyperproliferative diseases” (Board of Regents, The University of Texas System, priority 2001, dated 2008), this text covers apoptosis under monotherapy and colony formation for two compounds.

Turning to `CCC1=C[C@@H]2CN(C1)Cc1c([nH]c3ccccc13)[C@@](C(=O)OC)(c1cc3c(cc1OC)N(C)[C@H]1[C@@](O)(C(=O)OC)[C@H](OC(C)=O)[C@]4(CC)C=CCN5CC[C@]31[C@@H]54)C2` [Vinorelbine], the apoptosis under monotherapy entry in the experiment on H460 NSCLC cells is reported as “No apoptosis”.

As to `CC(=O)O[C@H]1C(=O)[C@@]2(C)[C@H]([C@H](OC(=O)c3ccccc3)[C@]3(O)C[C@H](OC(=O)[C@H](O)[C@@H](NC(=O)c4ccccc4)c4ccccc4)C(C)=C1C3(C)C)[C@]1(OC(C)=O)CO[C@@H]1C[C@@H]2O` [paclitaxel], the colony formation entry in experiment [1] is “no significant reduction”.
